# Data published in patent publication US20220389006A1, “SALTS AND FORMS OF AN ESTROGEN RECEPTOR MODULATOR” (Recurium IP Holdings, LLC, priority 2019, published 2022).
# Read-outs that look alike come from different tables or passages of the source.
# Assays:
# [1] = Crystallinity / form change upon heating (XRPD); assay type: physicochemical
# Text: For XRPD analysis, PANalytical X'Pert3 X-ray powder diffractometer was used.
# [2] = Crystallinity before and after grinding (XRPD, FIG. 38); assay type: physicochemical; conditions: for crystallinity after grinding: grinding with a mortar and pestle for approximately 5 minutes, XRPD FIG. 38
# Text: (§1) As shown by the top spectrum, the sharp peaks of the HCl salt of Compound A have flattened out compared to the bottom spectrum. […] The data provide in Table 4 further supports the conclusion that Form A maintains its crystallinity compared to the mesylate salt of Compound A.
# [3] = HPLC purity before and after heating to 100° C. and 150° C.; assay type: physicochemical
# Experimental: (§2) Form A retains its crystallinity to a temperature of about 150° C. […] In addition, Form A can be heated to at least to 100° C. that can allow for the removal of any trapped solvent without erosion of purity, which can be beneficial. The purity of initial Form A, Form A after being heated to 100° C., and Form A after being heated to 150° C. are shown.
# [4] = TGA of samples heated to 150° C. (FIG. 34); assay type: physicochemical
# Experimental: FIG. 34 provides a TGA thermogram for (1) Form A for a sample heated to 150° C., and (2) a sample initially dried under vacuum for 3 hours at 40° C.
# as §2
# TGA data were collected using a TA Discovery 5500 TGA from TA Instruments. DSC was performed using a TA Discovery 2500 DSC from TA Instruments.
# MCF7 = experiment: Breast Cancer Cell Proliferation Assay (MCF-7); assay type: cell-based; conditions: 5 days of compound exposure, Cell Titer-Glo
# Experimental: MCF7 was expanded and maintained in the medium (Phenol red free DMEM/F12 (Hyclone SH30272.01) NEAA (Gibco 11140-050) Na-pyruvate (Gibco 11360-070) and Re-stripped Charcoal stripped FBS (Gemini 100-119)). The cells were adjusted to a concentration of 3,000 cells per mL in the above media, and the cells were incubated (37° C., 5% CO2). The following day a 10 point, serial dilution of compounds was added to the cells at a final concentration ranging from 10-0.000005 μM for the test compounds (17β-estradiol was used as a control). Additional cells were plated in 30 wells to serve as the day 1 (pretreatment) comparison. After 5 days of compound exposure, Cell Titer-Glo reagent was added to the cells, and the relative luminescence units (RLUs) of each well was determined. Cell Titer-Glo was also added to 32 μL of medium without cells to obtain a background value. The plates were allowed to incubate at room temperature for 10 minutes to stabilize luminescent signal, and the luminescence signal was recorded with EnSpire. The relative increase in cell number of each sample is determined as follows: (RLU sample-RLU background/RLU estrogen only treated cells-RLU background)×100=% inhibition.
# [5] = Solid-state storage stability of free base Form I at 5, 40 and 60° C. (HPLC); assay type: physicochemical; conditions: for Area % of A / Purity vs. Initial %: HPLC
# Experimental: Form I was stable in its solid state at 5° C. for 7 days, but degraded upon storage at 40° C. and 60° C.
# In Table 1, “A” represents Compound A, and the data was obtained via HPLC.
# [6] = Crystallinity during sample preparation (XRPD, FIG. 37); assay type: physicochemical
# Text: FIG. 37 provides a representative XRPD pattern of a second HCl salt of Compound A (prior to sample preparation and after re-preparation of the sample).
# as §1
compound,measurement,setting,value
CC1Cc2c([nH]c3ccccc23)C(c2c(F)cc(C=CC(=O)O)cc2F)N1C12CC(C1)C2.O=S(=O)(O)O (centres unmarked) [Form A],Form change,[1]; Heated to 100° C.,No
same,Form change,[1]; Heated to 150° C.,No
same,temperature to which crystallinity is retained,"[1]; XRPD, FIG. 31",about 150 °C
same,stability after one week,25° C. and 60% relative humidity,stable
same,stability after one week,40° C. and 75% relatively humidity,stable
same,Crystallinity,[2]; After grinding for 5 mins.,Decreased crystallinity
same,Crystallinity,[2]; Initial,Crystalline
same,crystallinity after grinding,[2],maintain its crystallinity
same,"HPLC peak No. 2, RRT 0.55 (degradation)",[3]; After heating to 100° C.,0.67
same,"HPLC peak No. 3, RRT 0.59 (degradation)",[3]; After heating to 100° C.,<0.05
same,"HPLC peak No. 5, RRT 0.90 (degradation)",[3]; After heating to 100° C.,<0.05
same,"HPLC peak No. 6, RRT 0.94 (degradation)",[3]; After heating to 100° C.,<0.05
same,"HPLC peak No. 8, RRT 0.97 (degradation)",[3]; After heating to 100° C.,<0.05
same,"HPLC peak No. 9, RRT 1.00 (Compound A), purity",[3]; After heating to 100° C.,99.07
same,"HPLC peak No. 2, RRT 0.55 (degradation)",[3]; After heating to 150° C.,0.76
same,"HPLC peak No. 3, RRT 0.59 (degradation)",[3]; After heating to 150° C.,0.18
same,"HPLC peak No. 5, RRT 0.90 (degradation)",[3]; After heating to 150° C.,0.21
same,"HPLC peak No. 6, RRT 0.94 (degradation)",[3]; After heating to 150° C.,0.16
same,"HPLC peak No. 8, RRT 0.97 (degradation)",[3]; After heating to 150° C.,0.24
same,"HPLC peak No. 9, RRT 1.00 (Compound A), purity",[3]; After heating to 150° C.,97.98
same,heat-promoted degradation,"[3]; HPLC, heated to 100° C. and 150° C.",resistant to heat-promoted degradation
same,Purity (area %),[3]; Heated to 100° C.,99.1 area %
same,Purity (area %),[3]; Heated to 150° C.,98.0 area %
same,Purity (area %),[3]; Initial,99.1 area %
same,"HPLC peak No. 2, RRT 0.55 (degradation)",[3]; Initial (before heating),0.67
same,"HPLC peak No. 3, RRT 0.59 (degradation)",[3]; Initial (before heating),<0.05
same,"HPLC peak No. 5, RRT 0.90 (degradation)",[3]; Initial (before heating),<0.05
same,"HPLC peak No. 6, RRT 0.94 (degradation)",[3]; Initial (before heating),<0.05
same,"HPLC peak No. 8, RRT 0.97 (degradation)",[3]; Initial (before heating),<0.05
same,"HPLC peak No. 9, RRT 1.00 (Compound A), purity",[3]; Initial (before heating),99.07
same,degradation (FIG. 34),[4]; sample heated directly to 150 C,4.47%
same,degradation (FIG. 34),[4]; sample heated to a lower temperature (<100° C.) and then to 150° C.,3.54%
same,IC50,MCF7,0.2 nM
CC1Cc2c([nH]c3ccccc23)C(c2c(F)cc(C=CC(=O)O)cc2F)N1C12CC(C1)C2 (centres unmarked) [Form I],stability in solid state,[5]; 5° C. for 7 days,stable
same,Area % of A,"[5]; 5° C., 1 Day",98.24%
same,Purity vs. Initial %,"[5]; 5° C., 1 Day",99.8%
same,Area % of A,"[5]; 5° C., 3 Days",98.09%
same,Purity vs. Initial %,"[5]; 5° C., 3 Days",99.6%
same,Area % of A,"[5]; 5° C., 7 Days",98.14%
same,Purity vs. Initial %,"[5]; 5° C., 7 Days",99.7%
same,Area % of A,"[5]; 40° C., 1 Day",97.60%
same,Purity vs. Initial %,"[5]; 40° C., 1 Day",99.1%
same,Area % of A,"[5]; 40° C., 3 Days",96.79%
same,Purity vs. Initial %,"[5]; 40° C., 3 Days",98.3%
same,Area % of A,"[5]; 40° C., 7 Days",96.18%
same,Purity vs. Initial %,"[5]; 40° C., 7 Days",97.7%
same,Area % of A,"[5]; 60° C., 1 Day",93.42%
same,Purity vs. Initial %,"[5]; 60° C., 1 Day",94.9%
same,Area % of A,"[5]; 60° C., 3 Days",88.31%
same,Purity vs. Initial %,"[5]; 60° C., 3 Days",89.7%
same,Area % of A,"[5]; 60° C., 7 Days",80.95%
same,Purity vs. Initial %,"[5]; 60° C., 7 Days",82.2%
same,degradation,[5]; after 7 days at 40° C.,approximately 2%
same,degradation,[5]; after 7 days at 60° C.,approximately 18%
same,crystallinity upon heating,"[1]; XRPD, FIG. 30 (initially, after 1, 3 and 7 days)",lose crystallinity
"C[C@@H]1Cc2c([nH]c3ccccc23)[C@@H](c2c(F)cc(/C=C/C(=O)O)cc2F)N1C12CC(C1)C2 [Free base of Compound A, (E)-3-(4-((1R,3R)-2-(Bicyclo[1.1.1]pentan-1-yl)-3-methyl-2,3,4,9-tetrahydro-1H-pyrido[3,4-b]indol-1-yl)-3,5-difluorophenyl)acrylic acid]",IC50,"MCF7; Homo sapiens, MCF7, 120 h",0.4 nM
CC1Cc2c([nH]c3ccccc23)C(c2c(F)cc(C=CC(=O)O)cc2F)N1C12CC(C1)C2.Cl (centres unmarked) [HCl salt of Compound A],crystallinity during sample preparation,[6],variable crystallinity
CC1Cc2c([nH]c3ccccc23)C(c2c(F)cc(C=CC(=O)O)cc2F)N1C12CC(C1)C2.CS(=O)(=O)O (centres unmarked) [Mesylate salt of Compound A],Form change,[1]; Heated to 100° C.,No
same,Form change,[1]; Heated to 150° C.,No
same,Crystallinity,[2]; After grinding for 5 mins.,Amorphous
same,Crystallinity,[2]; Initial,Crystalline
same,crystallinity after grinding,[2],loss of crystallinity
same,Purity (area %),[3]; Heated to 100° C.,98.4 area %
same,Purity (area %),[3]; Heated to 150° C.,97.1 area %
same,Purity (area %),[3]; Initial,98.4 area %
